This passage reports IC50 results from BindingDB's records for patent US9718819 (Merck Sharp & Dohme, 2017).

For the experiment, the target named is Gag-Pol polyprotein (Human immunodeficiency virus type 1 group M subtype B (isolate HXB2), UniProt P04585). The experiment is described as follows: HIV-1 Reverse Transcriptase Inhibitory Assay. The conditions noted are these: pH 7.8; 25 °C. From the text: The heterodimeric nucleic acid substrate used in the HIV-1 RT polymerase reactions was generated by annealing the DNA primer, biotinylated pD500 (Sigma Aldrich, USA, 5′-biotin-ttg aaa tga ctg cgg tac ggc-3′), SEQ ID NO. 1 to the nucleotide RNA template t500 (derived from hepatitis C virus [HCV] sequence, IBA, Germany, 5′-GAGGUUCAGGUGGUUUCCACCGCAACACAAUCCUUCCUGGCGACCUGCGUCAACGGCGUGUGUUGGACCGUUUACCAUGGUGCUGGCUCAAAGACCUUAGCCGGCCCAAAGGGGCCAAUCACCCAGAUGUACACUAAUGUGGACCAGGACCUCGUCGGCUGGCAGGCGCCCCCCGGGGCGCGUUCCUUGACACCAUGCACCUGUGGCAGCUCAGACCUUUACUUGGUCACGAGACAUGCUGACGUCAUUCCGGUGCGCCGGCGGGGCGACAGUAGGGGGAGCCUGCUCUCCCCCAGGCCUGUCUCCUACUUGAAGGGCUCUUCGGGUGGUCCACUGCUCUGCCCUUCGGGGCACGCUGUGGGCAUCUUCCGGGCUGCCGUAUGCACCCGGGGGGUUGCGAAGGCGGUGGACUUUGUGCCCGUAGAGUCCAUGGAAACUACUAUGCGGUCUCCGGUCUUCACGGACAACUCAUCCCCCCCGGCCGUACCGCAGUCAUUUCAA-3′), SEQ ID NO 2). […] The mixture was then preincubated on an orbital shaker for 30 min at room temperature in microtiter plates (Costar 3365, Corning, USA). A polymerization reaction was initiated by the addition of RNA template/pD500 DNA primer hybrid (16.6 nM final of RNA/DNA hybrid) and dNTPs (2 μM dATP, dGTP, dCTP and 66.6 nM Ru-dUTP (Meso Scale Discovery, USA)). Plate was sealed and incubated for 5-10 min at room temperature on an orbital shaker. Plate was then incubated for 90 min at 37° C. and reactions quenched with 60 μl quenching buffer (50 mM EDTA, 0.7% BSA, 0.7% Tween-20, 0.017% sodium azide in PBS). The resulting solution was incubated at room temperature for an additional 5 min and then 50 μL was transferred to pre-blocked Avidin plates (L15AA, Meso Scale Discovery). Each well of Avidin plate was blocked for 1 h at room temperature with 100 μL 5% BSA in PBS. Blocking solution was removed by tapping vigorously on filter paper to remove all excess liquid. Reaction on pre-blocked avidin plate proceeded for 60 min at room temperature and then contents removed by tapping vigorously on filter paper to remove all excess liquid. After washing plate 3 times with 150 μL 1×PBS and blotting dry between cycles, 150 μL 1× Read Buffer T (4× Read Buffer T, Meso Scale Discovery) was added and incubated for 5 min at room temperature before counting on a Sector Imager […] (Meso Scale Discovery). Titration curves and IC50 values were calculated using a four parameter logisitc fit according to standard procedures. Briefly, % Inhibition=100×((sample raw value)−(mean value of the low control or 0% inhibition))/((mean value of wells representing 100% inhbition)−(mean value of 0% inhbition)). […]

Regarding `COc1cc(-c2cc(Cn3cnc(C(F)(F)F)c(Oc4cc(Cl)cc(C#N)c4)c3=O)n[nH]c2=O)ccn1` [US9718819, 79], the half-maximal inhibitory concentration (IC50) – broadly, the concentration at which inhibition is half-maximal – was determined as 6 nM.

The molecule `Cn1[nH]c(=O)c(Cn2cnc(C(F)(F)F)c(Oc3cc(Cl)cc(C#N)c3)c2=O)cc1=O` [US9718819, 127] had a 50% inhibitory concentration (IC50) of 434 nM.

As for `Cc1cncc(-c2cc(Cn3cnc(C(F)(F)F)c(Oc4cc(Cl)cc(C#N)c4)c3=O)n[nH]c2=O)c1` [US9718819, 80], the IC50 came to 14 nM.

The molecule `N#Cc1cc(Cl)cc(Oc2c(C(F)(F)F)ncn(Cc3cc(-c4cn[nH]c4)n[nH]c3=O)c2=O)c1` [US9718819, 118] registered a concentration for half-maximal inhibition (IC50) of 7 nM.
